The text below walks through data of PMC11855827, “High-Throughput Screening of Five Compound Libraries for Anthelmintic Activity and Toxicity Leads to the Discovery of Two Flavonoid Compounds” (International Journal of Molecular Sciences, 2025).

Series [1] relates to T. circumcincta resistant strain. As to the kind of experiment: Larval migration inhibition test (LMIT). Further details: species or system Teladorsagia circumcincta. The settings on record: Teladorsagia circumcincta, 24 h; resistant strain, L3, 100 μM; NE = Not Effective at 100 μM; control ivermectin 8.75 µg/mL; read-out: T. circumcincta LMIT (%). The source says: (§1) Eggs and third instar larvae (L3) of H. contortus from a field strain and a resistant strain of T. circumcincta were used in the current trials. These parasitic forms were obtained from fresh feces of Merino and Churra sheep experimentally infected at the experimental farm of the Instituto de Ganadería de Montaña (IGM, CSIC, Gruyeros, León, Spain) and purified according to previously described methods. Briefly, eggs were taken from fresh feces, washed, centrifuged and floated with a saturated sodium chloride solution, then concentrated, counted and used in the assays. L3 were obtained by culturing feces at 25 °C for 13 d. L3 larvae were […] in 0.5% sodium hypochlorite solution for 10 min at room temperature and washed to avoid excess salt. After washing, they were concentrated and counted for use.
(§2) The viability of H. contortus larvae was assessed by the larval migration inhibition test (LMIT) according to previously described methods. Briefly, 700 µL aliquots containing 500–600 L3 were prepared for each compound. […] After a 24 h incubation at 28 °C, the compound was removed by three washes, leaving a final volume of 1400 µL. After the washes, three 400 µL aliquots were taken from each tube and transferred to a 96-well plate with a MultiScreen mesh filter. The plates were incubated for a further 24 h at 28 °C to allow the motile L3 to pass through the 20 µm mesh for counting. Then, the number of larvae present in each well was counted to determine percentage of larval migration for each compound: % Larval migration=number of larvae migrating in compound wells/number of larvae migrating in negative control×100
(§3) For the larvae, ivermectin at 8.75 µg/mL and DMSO 0.5% (v/v) were used as controls and at least 12 replicates were performed. […] EC50 were determined by plotting the percentage of viability of the L1 against the concentration of each compound, using the nonlinear fit analysis provided by the SigmaPlot® 10.1.

Series [2] shares this test system. As to the kind of experiment: Egg hatch inhibition (EHI), ovicidal effect. Further details: species or system Teladorsagia circumcincta. Particulars: for EC50: egg hatching, resistant T. circumcincta, nine replicates, read-out: Ovicidal Effect EC50 (μM) T. c.
Series [3] relates to C. elegans. Briefly: microbe, parasite or virus in culture. The settings on record: Caenorhabditis elegans.
Series [4] has as its system Staphylococcus epidermidis, Escherichia coli, and Candida albicans. Further details: method as in earlier work. The settings on record: in vitro; cited from earlier work.
Series [5] has as its system C. elegans. As to the kind of experiment: C. elegans motility dose-response (DR) assay. The arrangement: species or system Caenorhabditis elegans.
Series [6] is described as follows: Mouse intestinal organoids' tolerance assay (alamarBlue). The settings on record: C57BL/6, mouse; for selectivity ratio at 3 d: mouse intestinal organoids (enteroids). A general note: Alamar Blue is a resazurin reagent that responds to reducing activity.
The conditions of series [7]: Globally Harmonized System (GHS) / ECHA; cited from earlier work.
Series [8] relates to H. contortus susceptible strain. As to the kind of experiment: Larval migration inhibition test (LMIT). Further details: species or system Haemonchus contortus. Particulars: L3, 100 μM, NE = Not Effective at 100 μM, control ivermectin 8.75 µg/mL; for inhibition at 100 µM: Haemonchus contortus, 24 h.
Source text: as §1, §2, §3

The nature of series [9]: Spheroids toxicity assay (alamarBlue). The class given is cell-based. Particulars: human. How it is done:
(§4) HepG2 cells were cultured as a monolayer under standard conditions, using DMEM/F12 medium supplemented with L-glutamine and 15 mM HEPES buffer (pH 7.2) supplemented with 10% fetal bovine serum (FBS) and antibiotic mixture (100 U/mL penicillin and 100 µg/mL streptomycin) at 37 °C and 5% CO2, according to previous published protocols.
(§5) Cells were detached from the culture flask using 0.25% trypsin solution and then centrifuged at 500× g for 6.5 min. After centrifugation, the supernatant was discarded, and the pellet was resuspended in culture medium. Cells were passed gently through a G27 needle several times and then counted. Cells were dispensed into a tissue treated Nunclon™ Sphera™ 96-well U-bottom plate (Thermo Scientific™, Waltham, MA, USA, 174925) in a final volume of 50 µL to a total of 2500 cells/well. In addition, another 50 µL of medium supplemented with Rat Tail Collagen I (Gibco™, Thermo Scientific™, Waltham, MA, USA, A1048301) was dispensed, to achieve a final concentration in a plate of 3 µg/mL for each well. The plate was centrifuged at 500× g for 1 min.
(§6) On Day 4, 100 µL of a serial dilution of the testing compounds were added to each well. For controls, 0.03% H2O2 (v/v) as positive control and 0.2% DMSO (v/v) as negative control were used.
(§7) To determine the viability of the spheroids to the testing compounds, a 20% of alamarBlue™ HS reagent (Invitrogen™, Thermo Fisher Scientific™, Waltham, MA, USA) was added on Day 7 and the results were read 24 h later using a Varioskan™ LUX (Thermo Scientific, USA, Instrument software ver. 1.00.37, Skanlt software ver. 5.0.0.42). All assays were conducted in duplicate across at least three independent experiments.

Series [10] deals with H. contortus susceptible strain. As to the kind of experiment: Egg hatch inhibition (EHI), ovicidal effect. The settings on record: for EC50: egg hatching, susceptible H. contortus, nine replicates, read-out: Ovicidal Effect EC50 (μM) H. c. Further details: species or system Haemonchus contortus.
The test system of another series is H. contortus L3-L4. The settings on record: read-out: IC50 against H. contortus L3-L4; cited from earlier work.
Series [11] has as its system C. elegans. The settings on record: read-out: EC50 found in the literature; cited from earlier work.
The conditions of series [12]: human poisoning case; cited from earlier work.
Another series can be described thus: in vitro. The settings on record: C57BL/6, mouse.
For series [13] the following is noted: mice, estimated; cited from earlier work.
Series [14] relates to C. elegans.
The test system of series [15] is mouse intestinal organoids (enteroids). As to the kind of experiment: Mouse intestinal organoids' tolerance assay (alamarBlue). Particulars: read-out: Citotoxicity CC50 (μM) Ent; mouse enteroid.
A further series has as its system HepG2 liver spheroids. Briefly: Spheroids toxicity assay (alamarBlue). The series is classed as cell-based. Here is the method: as §4, §5, §6, §7
Series [16] concerns mouse intestinal organoids (enteroids). The settings on record: C57BL/6, mouse.
[17] abbreviates: Teladorsagia circumcincta, resistant strain, 100 μM, NE = Not Effective at 100 μM, control thiabendazole 0.1 µg/mL.
The mark [18] stands for this setting: Selective Index (SI) CC50/EC50 Ent/H. c, CC50 mouse enteroid / EC50 H. contortus.
Setting [19] is: Selective Index (SI) CC50/EC50 Ent/T. c, CC50 mouse enteroid / EC50 T. circumcincta.
The mark [20] stands for this setting: Haemonchus contortus, susceptible strain, 100 μM, NE = Not Effective at 100 μM, control thiabendazole 0.1 µg/mL.
Where [21] appears, read: HepG2 liver spheroids, read-out: Citotoxicity CC50 (μM) Sph.

Where “and” joins values, the source holds several entries; their conditions need not be identical. Equal entries are not always repeated. Where two headings read alike, the source gives them in different places.

Broadly, the EC50 is the concentration that produces a half-maximal response. With `CCCCCCCCN=c1ccn(CCCCCCCCCCn2ccc(=NCCCCCCCC)cc2)cc1` [Octenidine, reference compound], the inhibition at 100 µM in series [1] stood at 94.8 ± 4.3%; in series [2] (setting [17]), 99.5 ± 0.9%; in series [8] it was 98.3 ± 0.3%; in [10] (setting [20]), 99.5 ± 0.8%. Also, the concentration giving a half-maximal response (EC50) in [2] (Teladorsagia circumcincta) amounted to 15.1 ± 4.8 µM; in the series on C. elegans [5] (Caenorhabditis elegans, 24 h, read-out: EC50 (μM) at 24 h, C. elegans motility, DR assay, 24 h), 6.9 ± 0.5 µM; in [10] (Haemonchus contortus), 2.1 ± 0.1 µM. Further, the inhibition at 110 µM turned out to be 84 ± 1% with C. elegans [3] (0 h, read-out: Inhibition (%) 110 μM (0 h), C. elegans L4 motility, 110 μM, 0 h, mean ± SD of four experiments) and 96 ± 5% in the series on C. elegans [3] (24 h, read-out: Inhibition (%) 110 μM (24 h), C. elegans L4 motility, 110 μM, 24 h, mean ± SD of four experiments). Moreover, the “Concentration leading to a microbial reduction of more than 99% within 15 min” value in series [4] is “below 1.5 μM”. The CC50 at 3 d turned out to be 14.2 ± 0.4 µM in series [6] and 54.1 ± 2.8 µM in series [9] (HepG2 liver spheroids (3D culture), read-out: Citotoxicity CC50 (μM) Sph). Also, the selectivity ratio at 3 d in series [6] (setting [18]) came to 6.8; in series [6] (setting [19]) it was 0.9; in [9] (HepG2 liver spheroids, pH 7.2, CC50 HepG2 spheroids / EC50 H. contortus, read-out: Selective Index (SI) CC50/EC50 Sph/H. c), 25.8; in series [9] (HepG2 liver spheroids, pH 7.2, CC50 HepG2 spheroids / EC50 T. circumcincta, read-out: Selective Index (SI) CC50/EC50 Sph/T. c), 3.6. Also, the GHS classification entry in [7] is on record as “category 4: acute toxicity”.

One may read the IC50 as the point on the concentration scale where inhibition reaches its midpoint. Regarding `CCc1nn(C)c(C(=O)NCc2ccc(Oc3ccc(C)cc3)cc2)c1Cl` [Tolfenpyrad], the half-maximal effective concentration (EC50) is 0.2 ± 0.3 µM in series [2] (Teladorsagia circumcincta); 2.4 ± 0.2 µM in the series on C. elegans [5] (Caenorhabditis elegans, read-out: EC50 (μM) at 24 h, C. elegans motility, DR assay); 3.6 µM with C. elegans [11]; 1.5 ± 0.1 µM in series [10] (Haemonchus contortus). The inhibition at 100 µM in [2] (setting [17]) turned out to be 99.7 ± 0.5%; in series [8], 9 ± 6.3%; in [10] (setting [20]), 96 ± 2.9%. Moreover, the inhibition at 110 µM is 80 ± 2% in the series with C. elegans [3] (0 h, read-out: Inhibition (%) 110 μM (0 h)) and 98 ± 2% in the series on C. elegans [3] (24 h, read-out: Inhibition (%) 110 μM (24 h)). Besides, in the series with H. contortus L3-L4, the IC50 is 0.02 to 3 µM. Also, the GHS classification entry in series [7] is on record as “category 4: acute toxicity”. For the same molecule, the selectivity ratio in series [9] (pH 7.2, CC50 HepG2 spheroids / EC50 H. contortus, read-out: Selective Index (SI) CC50/EC50 Sph/H. c) was over 33.3; in [9] (pH 7.2, CC50 HepG2 spheroids / EC50 T. circumcincta, read-out: Selective Index (SI) CC50/EC50 Sph/T. c) it was 250; in “in vitro” (setting [18]) it was under 0.7; in the series “in vitro” (setting [19]), under 5. Further, the CC50 in series [9] (setting [21]) was over 50 µM; in “in vitro”, under 1 µM. In series [12], the “Plasma concentration in a poisoning case” value is 1.97 µg/mL and 5.08 µM. Moreover, in series [13], the “Maximum tolerated dose (MTD)” value is reported as 1 mg/kg.

Regarding `O=C(/C=C/c1ccccc1)c1ccccc1` [Trans-chalcone], in the series on C. elegans [14] (0 h, 110 μM), the “Inhibition (%) 110 μM (0 h)” value was found to be 16 ± 17%. The “Inhibition (%) 110 μM (24 h)” value in the series with C. elegans [14] (24 h, 110 µM) stood at 95 ± 5%. Further, the EC50 in series [2] amounted to 4.9 ± 0.2 µM; with C. elegans [5] (read-out: EC50 (μM) at 24 h, C. elegans motility, DR assay) it was 24.9 ± 1.8 µM; in series [10], 3.1 ± 0.2 µM. Also, the “T. circumcincta EHI (%)” value in series [2] (resistant strain, 100 μM, NE = Not Effective at 100 μM, control thiabendazole 0.1 µg/mL) is 99.9 ± 0.2%. The inhibition at 110 µM came to 17% with C. elegans [3] (0 h, read-out: Percentage of motility inhibition 0 h, Table S2, C. elegans SS assay, 110 μM, 0 h, averages of 4 data points) and 96% in the series on C. elegans [3] (24 h, read-out: Percentage of motility inhibition 24 h, Table S2, C. elegans SS assay, 110 μM, 24 h, averages of 4 data points). Further, the results for the CC50 (in series [15]; in the series on HepG2 liver spheroids (setting [21])) were over 50 µM and over 90 µM, respectively. The “H. contortus LMIT (%)” value in [8] came out at 20.3 ± 7.5%. For the same molecule, in the series on HepG2 liver spheroids (human, pH 7.2), the “Selective Index (SI) CC50/EC50 Sph/H. c” value was over 29.0. Further, the “Selective Index (SI) CC50/EC50 Sph/T. c” value in the series with HepG2 liver spheroids (human, pH 7.2) was over 18.4. Moreover, the “H. contortus EHI (%)” value in series [10] (susceptible strain, 100 μM, NE = Not Effective at 100 μM, control thiabendazole 0.1 µg/mL) worked out at 99.5 ± 0.7%. Further, in series [16], the “Selective Index (SI) CC50/EC50 Ent/H. c” value is over 16.1. Moreover, the “Selective Index (SI) CC50/EC50 Ent/T. c” value in series [16] is on record as over 10.2.
